Source: patent US4337249A, “Modulators of the complement system” (American Cyanamid Company, priority 1981, dated 1982)
Structures can show the parent of a compound that is named as a salt.

Columns and labels:
[1] = target: T1, activated human C1 (Homo sapiens, UniProt P09871); assay: Test Code 026 (C1 inhibitor); format: biochemical; settings: serial twofold dilution assay; higher well number indicates higher activity; protection of human C2 from C1 in presence of C4
T1 sequence (P09871 438-688 limits assumed): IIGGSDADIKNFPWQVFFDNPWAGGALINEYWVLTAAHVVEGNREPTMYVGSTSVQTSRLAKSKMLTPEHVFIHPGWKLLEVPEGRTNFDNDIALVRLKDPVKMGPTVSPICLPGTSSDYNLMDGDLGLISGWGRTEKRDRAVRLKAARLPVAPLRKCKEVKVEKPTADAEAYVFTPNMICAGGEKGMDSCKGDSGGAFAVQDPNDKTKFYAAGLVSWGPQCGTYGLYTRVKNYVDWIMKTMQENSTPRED
T1 sequence (P09871 16-437 limits assumed): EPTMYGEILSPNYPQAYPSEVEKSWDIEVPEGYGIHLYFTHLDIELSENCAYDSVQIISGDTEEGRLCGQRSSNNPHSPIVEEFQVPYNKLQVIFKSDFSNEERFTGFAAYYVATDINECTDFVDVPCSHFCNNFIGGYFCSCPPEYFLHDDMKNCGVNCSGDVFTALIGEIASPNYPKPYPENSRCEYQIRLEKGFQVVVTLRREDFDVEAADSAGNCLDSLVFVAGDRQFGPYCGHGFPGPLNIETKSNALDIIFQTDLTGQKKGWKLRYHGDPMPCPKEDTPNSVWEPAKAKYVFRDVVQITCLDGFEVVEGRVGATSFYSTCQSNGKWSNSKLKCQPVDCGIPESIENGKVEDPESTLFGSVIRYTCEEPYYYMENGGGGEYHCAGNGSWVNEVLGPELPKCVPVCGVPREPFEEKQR
Description: (§1) An active inhibitor protects C2 from C1 and C4; (ii) Cap 50 Test Here, appropriate amounts of the test compound are added to a pool of guinea pig serum in vitro, after which the undiluted serum capillary tube assay of U.S. Pat. No. 3,876,376 is run. The concentration of compound inhibiting 50% is reported; and (iii) Guinea Pig Intraperitoneal Test (GPIP)--Guinea pigs weighing about 300 g are dosed intraperitoneally (i.p.) with 200 mg kg of the test compound dissolved in saline and adjusted to pH 7-8. Approximately 0.4 ml blood samples, taken by orbital sinus puncture 2 hours and 6 hours after injections, are collected directly into centrifuge tubes; 5 ml blood samples, taken by decapitation 24 hours after injection, are collected directly into beakers. The samples are allowed to clot, centrifuged, and the resultant sera are assayed for complement activity using the capillary complement assay. Percent inhibition are calculated by comparison with simultaneous controls. The results of the GPIP appear in Table I together with results of Test Code 026 and Cap 50.

[2] = test system: complement in pool of guinea pig serum; assay: Cap 50 Test (undiluted serum capillary tube assay); format: biochemical
Description: as §1

[3] = test system: serum complement activity; assay: Guinea Pig Intraperitoneal Test (GPIP); format: in vivo; settings: 200 mg kg i.p., versus simultaneous controls
Description: as §1

## O=C(C=Cc1ccc(OS(=O)(=O)O)c(OS(=O)(=O)O)c1)N[C@@H]1O[C@H](COS(=O)(=O)O)[C@@H](O[C@H]2O[C@H](COS(=O)(=O)O)[C@@H](OS(=O)(=O)O)[C@H](OS(=O)(=O)O)[C@H]2OS(=O)(=O)O)[C@H](OS(=O)(=O)O)[C@H]1OS(=O)(=O)O [N-(4-O-α-D-Glucopyranosyl-β-D-glucopyranosyl)-3,4-dihydroxycinnamamide, nonakis (H-sulfate), (nonaester), nonasodium salt]
[1]
  In vitro Activity C1 026 Wells: 8 (9) Wells
[2]
  In vitro Activity Cap 50 (concentration of compound inhibiting 50%): 304
[3]; serum 2 hours after injection
  In vivo Activity (Guinea pig % Inhibition) Intraperitoneal, 2 hours: 63 % Inhibition
[3]; serum 6 hours after injection
  In vivo Activity (Guinea pig % Inhibition) Intraperitoneal, 6 hours: 17 % Inhibition
[3]; serum 24 hours after injection
  In vivo Activity (Guinea pig % Inhibition) Intraperitoneal, 24 hours: 2 % Inhibition
